Test results: patent US7252953B2, “Method of detecting and preventing Alzheimer's disease, particularly at prodromal and early stages” (United States of America Department of Veterans Affairs, priority 2002, dated 2007)

Assays:
[1] = tested on: GRK5; assay: GRK5 subcellular distribution in sAβ-treated microglial cells (immunocytochemistry, semi-quantified); type: cell-based, murine; settings: ICC; for translocation of GRK5 from cell membrane to cytosol: 5 min, primary murine microglial cells, serum-free medium
Procedure: (§1) Primary microglial cultures were prepared from neonatal mouse (C57BL6) brains as previously described (Reference 29) and maintained in Delbecco's modified Eagle's medium with F-12 nutrient mixture (DMEM/F12) containing 10% fetal bovine sera (FBS) and antibiotics. N9 clonal murine microglial cell cultures were maintained in Iscoves modified Delbecco's medium (IMDM) containing 5% heat-inactivated FBS, 2 mM L-glutamine, 50 μM 2-mercaptoethanol and antibiotics. Treatment of both primary and N9 microglial cells were performed under serum-free conditions.
Microglial cells were seeded onto poly-L-lysine-coated 8-chamber slides at a density of 1×10^4/well. After various treatments, cells were immediately fixed with pre-chilled (4° C.) 5% acetic acid in methanol for 45 min at 4° C., followed by washing with PBS. The fixed cells were blocked and double-stained with phalloidin-FITC (1:1,000) and anti-GRK5 (1:500) or GRK2 (1:500). Secondary antibody-Cy3 conjugates (1:500) staining, washing, mounting and confocal microscopic visualization were performed routinely as previously described (Reference 29).
Briefly, the selected cell image corresponding to GRK staining, was copied, enlarged, inverted and rotated to an appropriate position for quantification with NIH Image. […] FIGS. 3E and F show the examples of profiles for the solid-line indicated levels in FIGS. 3C and D, respectively. The dark and light grey areas in FIGS. 3E and F represent membrane and Cyto, respectively. The sum of areas for membrane and Cyto from all slices in each cell represents GRK subcellular distribution in this particular cell. For each treatment, 20 randomly selected cells were quantified and the average data were shown.
Microglial-mediated inflammation is an important pathological component of AD (Reference 28). […] Thrombin, a serine protease is known to activate protease-activated GPCRs, (PARs) such as PAR1 (Reference 29) and PAR4 in microglia.
N9 microglial cells were treated with sAβ1-42 (500 nM) for 5 minutes. […] The detailed methods for semi-quantification of GRK subcellular distribution are described in Methods section (above).

[2] = tested on: TNF-α; assay: TNF-α release in N9 clonal murine microglial cells; type: cell-based; settings: for TNF-α release induced by the activator alone: single dose
Procedure: as §1, with “conditions. Freshly solublized Aβ (BioSource, Camarillo, Calif.) peptides were prepared and characterized as previously described (References 30 and 44) and were used in all in vitro experiments. Unless specified, cells were always pretreated with sAβ for 5 min and then followed by challenge with α-thrombin (100 nM or as indicated), glutamate (2 mM) or LPS (5 ng/ml).” for “conditions.”
(§2) TNF-α production in microglial culture media was measured and standardized as previously described (Reference 29).
(§3) Given our results that sAβ disrupts GRK function and inhibits GPCR desensitization in microglia, we next investigated whether such signaling dysregulation might lead to cellular functional changes in microglia. Both primary and N9 clonal murine microglial cultures were used and TNF-α secretion in culture media was measured as an outcome. […] Moreover, the potentiation effect of sAβ on thrombin and glutamate-induced microglial activation was dose-dependent, with a minimal effective concentration (ECmin) of 20 nM and a maximal EC (ECmax) of 500 nM. Furthermore, the enhancement effect was not observed if sAβ was given after (10 min) thrombin or glutamate treatments. […] Together with the evidence that sAβ inhibits GRK-GPCR interactions and causes prolongation of GPCR signaling, we conclude that sAβ, by disrupting GRK function, alters microglial reactivity to specific GPCR activators.
FIG. 6A, pretreatment with sAβ1-42 potentiated (p<0.01) TNF-α release induced by increasing doses of thrombin (Thr) as indicated from primary mouse brain microglial cultures. n=4. […] The ECmin and ECmax for sAβ's potentiation are approximately 20 nM and 500 nM, respectively. n=6.

[3] = tested on: [Ca^2+]i; assay: Ca2+ imaging (Fluo-4) in microglial cells; type: cell-based, murine
Procedure: as §1, with “conditions. Freshly solublized Aβ (BioSource, Camarillo, Calif.) peptides were prepared and characterized as previously described (References 30 and 44) and were used in all in vitro experiments. Unless specified, cells were always pretreated with sAβ for 5 min and then followed by challenge with α-thrombin (100 nM or as indicated), glutamate (2 mM) or LPS (5 ng/ml).” for “conditions.”
We measured [Ca^2+]i in microglial cells using Fluo-4 (2 μM) with the aid of a Nikon BioRadiance triple laser scanning confocal microscope. Image collection, quantification and data analysis were performed as previously described (Reference 29).
(§4) In previous studies, we found thrombin signaling via PARs in microglial cells involving [Ca^2+]i increase and transient activation of both p38 and p44/42 mitogen-activated protein kinases (MAPKs) (Reference 29). To understand potential consequences of GRK dysfunction induced by sAβ, for these studies we also assessed changes in thrombin signaling in sAβ-pretreated microglial cells.
(§5) FIG. 5A, N9 microglial cells were pre-treated with 500 nM sAβ1-42 (arrow “1”) followed by 100 nM thrombin treatment (arrow “2”). Changes in [Ca^2+]i were measured as previously described (Reference 29) from three separate experiments. […] For both FIGS. 5B and 5C, lane M=Marker, 1=Control (0 min), 2=Control (25 min), 3=Aβ1-42 (25 min), 4=Thrombin (20 min), 5=Aβ1-42+thrombin (20 min post-Aβ), 6=Control (24 h), 7=Aβ1-42 (24 h), 8=Thrombin (24 h) and 9=Aβ1-42+thrombin (24 h post-Aβ). “P” and “T” indicate phosphorylated and total p38 or p44/42 MAPKs, respectively.

[4] = tested on: TNF-α; assay: TNF-α release in primary mouse brain microglial cultures; type: cell-based; settings: 5 min pretreatment, FIG. 6A
Procedure: as §1, with “conditions. Freshly solublized Aβ (BioSource, Camarillo, Calif.) peptides were prepared and characterized as previously described (References 30 and 44) and were used in all in vitro experiments. Unless specified, cells were always pretreated with sAβ for 5 min and then followed by challenge with α-thrombin (100 nM or as indicated), glutamate (2 mM) or LPS (5 ng/ml).” for “conditions.”
as §2, §3
FIG. 6A, pretreatment with sAβ1-42 potentiated (p<0.01) TNF-α release induced by increasing doses of thrombin (Thr) as indicated from primary mouse brain microglial cultures. n=4. […]

[5] = tested on: PAR1-GRK2; assay: GRK-PAR binding in microglial cells by IP and WB: PAR1-GRK2; type: cell-based, murine; settings: thrombin 100 nM alone, 30 seconds, compared to untreated microglial cells
Procedure: as §1, with “conditions. Freshly solublized Aβ (BioSource, Camarillo, Calif.) peptides were prepared and characterized as previously described (References 30 and 44) and were used in all in vitro experiments. […]” for “conditions.”
(§6) Cultured cells were lysed in pre-chilled 2×IP buffer I (Tris, 20 mM, pH 7.4; NaCl, 300 mM; EDTA, 2 mM; 2 mM EGTA, pH 8.0; 0.4 mM sodium ortho-vanadate, 2% Triton X-100; 1% NP-40; 0.4 mM PMSF) supplemented both with phosphatase and protease inhibitor cocktails. After centrifugation, the supernatants were collected and total protein concentrations were determined by the bicinchoninic acid assay (BCA). […] Both antibodies to GRK2 and GRK5 (Santa Cruz) were diluted 1:500 for WB, other routine procedures, WB for total and phospho-p44/42 MAPK, and semi-quantitative analysis of protein band density were performed as previously described (Reference 29). […]

[6] = tested on: PAR4-GRK5; assay: GRK-PAR binding in microglial cells by IP and WB: PAR4-GRK5; type: cell-based, murine; settings: thrombin 100 nM alone, 30 seconds, compared to untreated microglial cells
Procedure: as §1, with “conditions. Freshly solublized Aβ (BioSource, Camarillo, Calif.) peptides were prepared and characterized as previously described (References 30 and 44) and were used in all in vitro experiments. […]” for “conditions.”
as §6

[7] = tested on: PAR4-GRK2; assay: GRK-PAR binding in microglial cells by IP and WB: PAR4-GRK2; type: cell-based, murine; settings: thrombin 100 nM alone, 30 seconds, compared to untreated microglial cells
Procedure: as §1, with “conditions. Freshly solublized Aβ (BioSource, Camarillo, Calif.) peptides were prepared and characterized as previously described (References 30 and 44) and were used in all in vitro experiments. […]” for “conditions.”
as §6

[8] = tested on: p44/42 MAPK; assay: p44/42 MAPK phosphorylation in microglial cells (WB); type: cell-based, murine; settings: substance alone
Procedure: as §1, with “conditions. Freshly solublized Aβ (BioSource, Camarillo, Calif.) peptides were prepared and characterized as previously described (References 30 and 44) and were used in all in vitro experiments. Unless specified, cells were always pretreated with sAβ for 5 min and then followed by challenge with α-thrombin (100 nM or as indicated), glutamate (2 mM) or LPS (5 ng/ml).” for “conditions.”
(§7) Cultured cells were lysed in pre-chilled 2×IP buffer I (Tris, 20 mM, pH 7.4; NaCl, 300 mM; EDTA, 2 mM; 2 mM EGTA, pH 8.0; 0.4 mM sodium ortho-vanadate, 2% Triton X-100; 1% NP-40; 0.4 mM PMSF) supplemented both with phosphatase and protease inhibitor cocktails. After centrifugation, the supernatants were collected and total protein concentrations were determined by the bicinchoninic acid assay (BCA). Equal amounts (250 μg) of cell lysates from each group were mixed with 20 μl (˜5 μg) of either PAR1 or PAR4 antibodies, and brought to a total volume of 1 ml in 1×IP buffer. Following a 1 hour incubation at 4° C., appropriate secondary antibody-agarose conjugates were added followed by incubation (30 min with agitation), centrifugation and sufficient washes. The pellets were resuspended in 30 μl of electrophoresis sample buffer and boiled for 5 min. The supernatants were directly used for polyacrylamide sodium dodecyl sulfate gel electrophoresis (SDS-PAGE) and WB analysis. To prepare subcellular fractions of brain samples, we homogenized fresh or fresh-frozen tissues in Tris buffered saline solution (Tris, 10 mM, pH 7.4; NaCl, 150 mM; EDTA, 1 mM; 1 mM EGTA, pH 8.0; 0.2 mM sodium ortho-vanadate) supplemented with protease inhibitor cocktails. After centrifugation (12,000 g at 4° C. for 15 min), the supernatants were collected as cytosolic fractions. The pellets were resuspended in 1×IP buffer containing protease inhibitor cocktail. Following brief sonication and centrifugation (12,000 g at 4° C. for 15 min), the supernatants were collected as membrane fractions. Both antibodies to GRK2 and GRK5 (Santa Cruz) were diluted 1:500 for WB, other routine procedures, WB for total and phospho-p44/42 MAPK, and semi-quantitative analysis of protein band density were performed as previously described (Reference 29).
as §4, §5

[9] = tested on: p38 MAPK; assay: p38 MAPK phosphorylation in microglial cells (WB); type: cell-based, murine; settings: substance alone
Procedure: as §1, with “conditions. Freshly solublized Aβ (BioSource, Camarillo, Calif.) peptides were prepared and characterized as previously described (References 30 and 44) and were used in all in vitro experiments. Unless specified, cells were always pretreated with sAβ for 5 min and then followed by challenge with α-thrombin (100 nM or as indicated), glutamate (2 mM) or LPS (5 ng/ml).” for “conditions.”
as §7, §4, §5

[10] = 5 min pretreatment, N9 cells, FIG. 6B
[11] = within 20 min post-Aβ treatment

## sAβ1-40: Freshly solubilized soluble β-amyloid 1-40 peptide (BioSource)
[1]; 50 nM peptide
  translocation of GRK5 from cell membrane to cytosol: not

## N[C@@H](CCC(=O)O)C(=O)O [glutamate]
[2]; N9 cells, FIG. 6B
  TNF-α release induced by the activator alone: significantly stimulated

## sAβ1-42: Freshly solubilized soluble β-amyloid 1-42 peptide (BioSource), mixture of monomeric and oligomeric Aβ
[1]; 50 nM peptide
  translocation of GRK5 from cell membrane to cytosol: To a lesser extent, similar GRK5 changes were also observed
[1]; 500 nM peptide
  translocation of GRK5 from cell membrane to cytosol: induced a rapid translocation of GRK5 from cell membrane to cytosol
[1]; 500 nM, 5 minutes, N9 microglial cells
  translocation of GRK5 from membrane to cytosol compartment: induced a rapid translocation of GRK5 from membrane to cytosol compartment
[3]; sAβ1-42 500 nM alone
  change of free [Ca^2+]i: slow and moderate increase
  time for [Ca^2+]i to return to basal levels: ≤ 4 min
[4]
  effect of sAβ pretreatment on thrombin-induced TNF-α release: potentiated
[2]; [10]
  effect of sAβ pretreatment on LPS-induced TNF-α release: not
  effect of sAβ pretreatment on glutamate-induced TNF-α release: dose-dependently potentiated
  effect of sAβ pretreatment on thrombin-induced TNF-α release: dose-dependently potentiated
[2]; sAβ given 10 min after thrombin or glutamate
  enhancement of TNF-α release when sAβ is given after thrombin or glutamate (post-treatment): not

## thrombin
[5]
  increase of PAR1 binding to GRK2: ~30 fold
[6]
  increase of PAR4 binding to GRK5: ~4 fold
[7]
  increase of PAR4 binding to GRK2: ~2 fold
[3]; thrombin alone (100 nM)
  [Ca^2+]i above basal levels after the rapid decrease: approximately 100 nM
  change of [Ca^2+]i: steep and sharp increase
  duration of the [Ca^2+]i level above basal: at least 4 min
[3]; thrombin alone (100 nM), listed as Thrombin
  change of [Ca^2+]i: sharp increase and rapidly decrease
[8]; 24 h
  p44/42 MAPK phosphorylation: returned to basal levels
[8]; [11]
  p44/42 MAPK phosphorylation: increased phosphorylation
[9]; 24 h
  p38 MAPK phosphorylation: returned to basal levels
[9]; [11]
  p38 MAPK phosphorylation: increased phosphorylation
[2]; N9 cells, FIG. 6B
  TNF-α release induced by the activator alone: significantly stimulated
